From the METLIN SMRT retention time set (Domingo-Almenara et al. 2019) come the findings set out here.

The data set can be described thus: gradient 5% acetonitrile 3 min, to 50% in 2 min, to 85% in 15 min, held 3 min, 100 µL/min. Conditions: column: Zorbax Extend-C18 2.1 x 50 mm; eluents: water / acetonitrile, 0.1% formic acid. In outline: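 Using water and acetonitrile that each contained 0.1% formic acid, mixtures of ~100 pure standards were separated at 100 μL/min on a Zorbax Extend-C18 column (2.1 × 50 mm, 1.8 μm). The HPLC fed a quadrupole time-of-flight mass spectrometer working in positive and negative ionization mode, with dead and dwell volumes of 40 μL and 900 μL. Data were acquired over 3 months. Retention time was read from computationally picked adduct peaks after manual inspection of each.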
`COc1ccc(N2CC(c3noc(-c4ccc(Cl)cc4OC)n3)CC2=O)cc1` (stereo not given) returned an RP-LC retention time of 971 s. Next, `CC(=O)c1ccc(NC(=O)Cn2nc3c4cc(-c5ccccc5)nn4ccn3c2=O)cc1`: 818 s. In turn, `O=C1CCCN1Cc1noc(-c2ccccc2)n1` returned an RP-LC retention time of 731 s. Next, `COc1ccc(NC(=O)C2CCCN(c3nccnc3Sc3ccccc3)C2)cc1Cl` (stereo not given): 1150 s; `COC(=O)c1ccccc1NC(=O)c1noc2c1CCC2`: 1110 s.

The compound `CCOC(=O)c1c(C)[nH]c(C(=O)N2CCC(CC(=O)NCc3cccc(F)c3)CC2)c1C` had an RP-LC retention time of 779 s. Next, `Cc1ccc(OCc2nc(-c3ccc(N4CCSCC4)nc3)no2)cc1`: 1180 s; `O=C(NCC1CCCO1)c1ccc(NC(=O)C2CCC2)cc1N1CCCCC1` (stereo not given): 617 s. Compound `c1coc(CN2CC(Oc3ccc(-c4noc(C5CC5)n4)cc3)C2)c1` showed an RP-LC retention time of 684 s. `COc1ccc2[nH]cc(CCNC(=O)c3cn(-c4ccc(F)cc4)nn3)c2c1` showed an RP-LC retention time of 868 s. In turn, `CCCc1noc(-c2cccnc2N2CCCN(Cc3ccc(F)cc3Cl)CC2)n1` returned an RP-LC retention time of 748 s. The figure for `O=C(NCc1cc(F)cc(F)c1)c1sc2ncccc2c1-n1cccc1` is 1030 s; for `CCCS(=O)(=O)c1nc2ccc(NS(C)(=O)=O)cc2s1` it is 755 s.

With `Cc1noc(-c2ccnc(-n3ncc(C(=O)N4CCN(Cc5ccccc5)CC4)c3C)c2)n1`, the RP-LC retention time amounted to 645 s. On to `CN(C)C(=O)CCc1ccc2c(c1)CN(C(=O)C1COc3ccccc3O1)CCO2` (stereo not given), for which the RP-LC retention time is 790 s. The figure for `Cc1nc2cccnc2n1CC1CCCN(S(=O)(=O)c2cccc(Br)c2)C1` (stereo not given) is 735 s; for `Cc1oc2ccn(C)c(=O)c2c1C(=O)NCc1ccccc1Br` it is 914 s; for `CC(NC(=O)CN1C(=O)C2CCCCN2c2ccc(S(=O)(=O)N3CCCC3)cc21)c1ccccc1` (stereo not given) it is 956 s. The figure for `COc1cccc2cc(C(=O)NCC3CCN(S(=O)(=O)C4CC4)CC3)oc12` is 754 s; for `O=C(C1=CN(c2ccc(Cl)c(Cl)c2)c2cc(F)ccc2S1(=O)=O)N1CCOCC1` it is 882 s; for `C=CCN1CC[C@@]2(C)c3cc(O)ccc3CC1[C@@H]2C` it is 644 s. Turning to `O=C(c1nnc(-c2csc(S(=O)(=O)N3CCN(c4ncccn4)CC3)c2)o1)N1CCCC1`, the RP-LC retention time came to 913 s.

Compound `O=S(=O)(NCc1ccc2c(c1)OCO2)N1CCOCC1` had an RP-LC retention time of 677 s. The figure for `Cc1ccc(-c2nc(-c3cccc(-c4ccnn4C)c3)no2)cc1F` is 1250 s; for `COc1cccc(OC)c1OCC(O)CN1CCN(c2ccccc2)CC1` (stereo not given) it is 668 s.

In turn, `Cc1c(C(=O)N2CCOCC2)sc2nc(-c3cccc(F)c3)c(NC3CCCC3)n12` gave an RP-LC retention time of 859 s. Compound `O=C(Cn1nc(S(=O)(=O)c2ccc(Cl)cc2)ccc1=O)N1CCN(c2ccc(F)cc2)CC1` had an RP-LC retention time of 910 s. Next, `CCOC(=O)c1ccc(N2C(=O)c3n[nH]c(C)c3C2c2ccc(OC)cc2OC)cc1` (stereo not given): 878 s; `CCCN(CC1CCOC1)C(=O)Nc1ccccc1C(F)(F)F` (stereo not given): 871 s. The figure for `Cn1nc(C(=O)Nc2cccc(-c3nnc4n3CCCC4)c2)c2ccccc21` is 712 s. `COc1ccc(OC)c(-c2nnc(SCC(=O)Nc3nccs3)o2)c1` showed an RP-LC retention time of 693 s.

As to `COc1ccc(CCNC(=O)C2=C3CCCN3c3ccc(F)cc3S2(=O)=O)cc1OC`, the RP-LC retention time was determined as 790 s. Compound `COc1ccccc1N1CCN(c2ncnc3c2CCC3)CC1` registered an RP-LC retention time of 645 s. Compound `CCOC(=O)C(CC)Oc1cc(O)c2c(=O)cc(-c3ccccc3)oc2c1` (stereo not given) registered an RP-LC retention time of 760 s. The figure for `CC(C)c1cccc(NC(=O)C2CC(=O)N(c3cccc(NC(=O)C4CCC4)c3)C2)c1` (stereo not given) is 957 s; for `O=C(O)c1cn(-c2ccc(F)c(Cl)c2)nn1` it is 727 s; for `CC(=O)c1cccc(S(=O)(=O)NC(C)Cc2ccco2)c1` (stereo not given) it is 770 s. In the case of `CN(C)S(=O)(=O)N1CCC(F)(c2nc(-c3ccccc3)no2)CC1`, the RP-LC retention time came out at 1030 s. The compound `Cc1ccc(OCc2nc(C3CCNC3)no2)cc1` (stereo not given) returned an RP-LC retention time of 641 s. Next, `Cc1nc(-c2csc(S(=O)(=O)N3CCC(C(=O)N4CCc5ccccc5C4)CC3)c2)no1`: 1050 s; `CCc1ccc(NC(=O)C2CCCN(c3nc4ccccc4nc3C(F)(F)F)C2)cc1` (stereo not given): 1230 s; `CC1CCN(S(=O)(=O)c2cc(C(=O)NCc3ccc(Br)cc3)n(C)c2)CC1`: 1080 s. Compound `CC1=C(c2ccccc2)S(=O)(=O)N=C1N1CCCN(C(=O)c2ccc(F)cc2)CC1` showed an RP-LC retention time of 805 s. The figure for `COC(=O)c1cccc(N2C=C(C#N)S(=O)(=O)c3c(F)cccc32)c1` is 847 s; for `CCOC(=O)CC1=CC(SCC(=O)N2CCC(C)CC2)=Nc2ccccc2N1` it is 1150 s. `CS(=O)(=O)N1CCCc2cc(C(=O)Nc3ccccc3Br)ccc21` returned an RP-LC retention time of 927 s. On to `CCN1C(=O)SC(CC(=O)O)C1=O` (stereo not given), for which the RP-LC retention time is 948 s. The figure for `COc1ccc(-c2nc(C)cc(C)c2CNS(=O)(=O)c2ccccc2C)cc1` is 658 s; for `CCc1ccc(NC(=O)Cn2cnc3c(sc4nc(-c5ccccc5)ccc43)c2=O)cc1` it is 1100 s. Next, `CC(C)n1cnc2ccc(-c3noc(COc4ccccc4)n3)cc21`: 770 s. The figure for `Cc1ccccc1NC(=O)c1cnc2c(c1)c(=O)n(C)c(=O)n2-c1ccccc1` is 700 s; for `Cc1ccccc1CN1C[C@@H]2C(=O)N(CCc3ccccc3)C(=O)[C@@H]2C1` it is 829 s. With `CN(CCCNC(=O)CN1C(=O)CCn2nc(-c3cn(C)c4ccccc34)cc21)Cc1ccccc1`, the RP-LC retention time amounted to 645 s. In the case of `CCNc1nc(N(C)C)nc(-n2cnc(SC)n2)n1`, the RP-LC retention time amounted to 784 s. On to `COC(=O)c1cn(Cc2cccc(C)c2)c2nc(C)ccc2c1=O`, for which the RP-LC retention time came to 854 s.

In turn, `O=C(N1CCCC1c1noc(COCc2ccccc2)n1)C1(c2ccccc2)CC1` (stereo not given) came in with an RP-LC retention time of 1040 s. `O=C(C1CCCN(c2cnc3nccnc3c2)C1)N1CCC(Cc2ccccc2)CC1` (stereo not given) registered an RP-LC retention time of 892 s. In turn, `Cc1cc(-c2nnc(-c3ccc(F)cc3)o2)c(C)n1CC(=O)NCc1cccnc1` showed an RP-LC retention time of 637 s. `O=C(c1ccco1)N1CCN(C(=O)C2CCN(c3ccc(N4CCCCC4)nn3)CC2)CC1` registered an RP-LC retention time of 607 s. Next, `CC(C)CC(=O)N1CCc2cc(CNC(=O)c3ccnn3C)ccc21`: 754 s; `COc1cccc2nc(NC(=O)c3ccc(Br)s3)sc12`: 990 s. Next, `Cc1nc(N2CCCC2)c2c(C(=O)NCCc3ccc(Cl)cc3)c(C)oc2n1`: 782 s; `Cc1ccc(CNC(=O)Cn2cnc3nc(N4CCCC(C(=O)NC(C)C)C4)sc3c2=O)cc1` (stereo not given): 710 s; `CCNC(=O)CCc1nc2ccccc2n(CC(=O)NCc2ccc(OC)cc2)c1=O`: 700 s. Next, `CCn1nccc1C(=O)N1C[C@@H](CO)[C@H](NC(C)=O)C1`: 514 s; `COc1ccc(-c2cc(N3CCN(C(=O)NCCC(C)C)CC3)ncn2)cc1`: 670 s; `O=C(N[C@H]1C[C@@H]2C[C@H]1N(C(=O)c1ccccc1Cl)C2)c1cccs1`: 643 s. Compound `COc1cc(C(=O)Nc2nnc(SCc3nnc(-c4ccccc4C)o3)s2)cc(OC)c1OC` yielded an RP-LC retention time of 942 s. `COc1ccc(NC(=O)N2CCCC2c2nc(-c3cccc(Cl)c3)no2)c(OC)c1` (stereo not given) registered an RP-LC retention time of 1070 s. Next, `CCNC(=O)c1ccc2c(c1)n(Cc1ccccc1)c(=O)c1ccnn12`: 774 s. The figure for `Cc1ccc(C(=O)N2C[C@@H](Oc3ccccc3)C[C@H]2C(=O)NC2CC2)s1` is 790 s; for `O=C(Nc1ccccc1F)c1cc(C2CC2)on1` it is 655 s. The figure for `COc1ccccc1CN1CCN(C(=O)C2CCc3nc(N4CCCCC4)ncc3C2)CC1` (stereo not given) is 623 s; for `CN(Cc1ccccc1)C(=O)Cn1cnc2nc3c(cc2c1=O)CCCC3` it is 725 s. Turning to `COc1cccc(C2CC(c3ccc(Br)cc3)=NC3(CCN(C(C)=O)CC3)N2)c1O` (stereo not given), the RP-LC retention time was found to be 694 s. Next, `O=C(Nc1ccc(Br)cc1)C1CCCN(c2ncc(-c3ccc(F)cc3)cn2)C1` (stereo not given): 1240 s; `COc1ccccc1CC(=O)N1CCCC1c1cc(C)on1` (stereo not given): 761 s; `CC(C)(CO)NCc1ccc(-c2ccc(F)c(Cl)c2)o1`: 644 s. For `Cc1cc(F)ccc1NS(=O)(=O)c1cc2n(c1)CCN(CC(C)C)C2=O`, the RP-LC retention time was 828 s. Next, `CCCNC(=O)C1Cn2cccc2C(=O)N1` (stereo not given): 581 s.
